Source: article PMC7604503, “Cyclic peptides can engage a single binding pocket through highly divergent modes” (Proceedings of the National Academy of Sciences of the …, 2020)
Where a SMILES comes first, the peptide text is derived from it. Bridges are numbered along the chain shown (N, C = ends).

Key:
[1] = test system: other BD families (non-BET BDs); experiment: BROMOscan competition binding assay, stated for the non-BET bromodomains together; set-up: species or system human; details: peptide concentration 1 μM
Source text: Again, remarkable specificity was observed.

[2] = target: T1, BAZ2B (Homo sapiens, UniProt Q9UIF8); experiment: BROMOscan competition binding assay (BromoMAX, Eurofins DiscoverX); details: for Percent Control BAZ2B: compound concentration 1000 nM, lower percentage control = stronger affinity
T1 construct: purchased Eurofins DiscoverX (BROMOscan, BromoMAX)

[3] = target: SMARCA4 (Homo sapiens, UniProt P51532); details: compound concentration 1000 nM; lower percentage control = stronger affinity
[4] = target: T2, BRD2-BD2 (Homo sapiens, UniProt P25440); experiment: 15N-HSQC NMR titration, CSPs fitted to 1:1 binding model; details: 15N-HSQC titration, simple 1:1 binding model; read-out: binding affinity for BRD2-BD2 from CSP data
T2 construct: human BRD2 (BD1: 65-194; BD2: 347-455); Avi tag (biotinylated); made in house; host or cells: E. coli BL21(DE3)
Source text: (G) Overlaid section of 15N-HSQC spectra of BRD2-BD2 alone (red) or in the presence of one (yellow), two (blue), or three (green) molar equivalents of Signals that undergo the greatest CSPs in the titration are labelled in the protein alone spectrum. Binding curves were derived by tracking the combined 15N/1H chemical shift perturbations of the signals undergoing the greatest CSPs. The data were fitted to a simple 1:1 Langmuir binding isotherm using Graphpad.

[5] = test system: BD1 domains (BRD2-BD1, BRD3-BD1, BRD4-BD1); experiment: SPR binding, stated for the BD1 domains together; set-up: species or system human
Description: We next assessed the ability of each of the three lead peptides to bind BRD3-BD1. […] To assess selectivity for other BET BDs, we used SPR to determine the binding affinity of each peptide toward the remaining BDs from BRD2, BRD3, and BRD4 (Fig. 1B). […]
Peptides were synthesised as C-terminal amides using standard fluorenylmethyloxycarbonyl (Fmoc)-strategy solid-phase chemistry using a Syro I automated synthesiser (Biotage) and NovaPEG Rink Amide resin (Novabiochem). Couplings were performed with HBTU/HOBt (1:1) and 6 equivalents of each amino acid. Double couplings were performed for arginine residues.
Following the final amino acid coupling reaction, the Fmoc group was removed and resin incubated with N-(chloroacetoxy)succinimide (0.2 M in DMF, 1 h, RT). Resin was washed with DMF (5 times) and DCM (5 times) and dried in vacuo.
Linear peptides were cleaved from the resin by incubation (3 h, RT) with a trifluoroacetic acid (TFA) cleavage cocktail (TFA/2,2’-(ethylenedioxy)diethanethiol/triisopropyl silane/H2O (92.5:2.5:2.5:2.5)) before filtration, concentration in vacuo and precipitation with ice-cold diethyl ether. Crude peptides were washed with diethyl ether (5 times), dried and resuspended in DMSO. The pH was raised to >8 using triethylamine to allow cyclisation. Following incubation (1 h, RT), peptides were re-acidified with TFA for purification.
Crude peptides were purified by reverse-phase high-performance liquid chromatography using a Chromolith Prep column (Merck) on a Prominence LC-20AP system (Shimadzu) (Solvent A: 0.1% TFA in H2O, Solvent B: 0.1% TFA in acetonitrile) to >95% purity as determined by mass spectrometry (Fig. S17). Purified peptides were reconstituted in DMSO and concentrations determined from their absorbance at 280 nm in 5% DMSO using predicted extinction coefficients.
Surface plasmon resonance (SPR)
Measurements were conducted on a T200 or S200 (GE Healthcare) and data analysed using the Biacore Insight Evaluation Software. Experiments were performed at 4 °C in single cycle kinetics mode. Biotinylated BET bromodomains were immobilised on a CAP chip (GE Healthcare) with a […]
pH 7.5 was used as the running buffer. […]

[6] = target: T3, BRPF1 (Homo sapiens, UniProt P55201); experiment: BROMOscan competition binding assay (BromoMAX, Eurofins DiscoverX); details: for Percent Control BRPF1: compound concentration 1000 nM, lower percentage control = stronger affinity
T3 construct: purchased Eurofins DiscoverX (BROMOscan, BromoMAX)
T3 sequence (P55201 1-1214): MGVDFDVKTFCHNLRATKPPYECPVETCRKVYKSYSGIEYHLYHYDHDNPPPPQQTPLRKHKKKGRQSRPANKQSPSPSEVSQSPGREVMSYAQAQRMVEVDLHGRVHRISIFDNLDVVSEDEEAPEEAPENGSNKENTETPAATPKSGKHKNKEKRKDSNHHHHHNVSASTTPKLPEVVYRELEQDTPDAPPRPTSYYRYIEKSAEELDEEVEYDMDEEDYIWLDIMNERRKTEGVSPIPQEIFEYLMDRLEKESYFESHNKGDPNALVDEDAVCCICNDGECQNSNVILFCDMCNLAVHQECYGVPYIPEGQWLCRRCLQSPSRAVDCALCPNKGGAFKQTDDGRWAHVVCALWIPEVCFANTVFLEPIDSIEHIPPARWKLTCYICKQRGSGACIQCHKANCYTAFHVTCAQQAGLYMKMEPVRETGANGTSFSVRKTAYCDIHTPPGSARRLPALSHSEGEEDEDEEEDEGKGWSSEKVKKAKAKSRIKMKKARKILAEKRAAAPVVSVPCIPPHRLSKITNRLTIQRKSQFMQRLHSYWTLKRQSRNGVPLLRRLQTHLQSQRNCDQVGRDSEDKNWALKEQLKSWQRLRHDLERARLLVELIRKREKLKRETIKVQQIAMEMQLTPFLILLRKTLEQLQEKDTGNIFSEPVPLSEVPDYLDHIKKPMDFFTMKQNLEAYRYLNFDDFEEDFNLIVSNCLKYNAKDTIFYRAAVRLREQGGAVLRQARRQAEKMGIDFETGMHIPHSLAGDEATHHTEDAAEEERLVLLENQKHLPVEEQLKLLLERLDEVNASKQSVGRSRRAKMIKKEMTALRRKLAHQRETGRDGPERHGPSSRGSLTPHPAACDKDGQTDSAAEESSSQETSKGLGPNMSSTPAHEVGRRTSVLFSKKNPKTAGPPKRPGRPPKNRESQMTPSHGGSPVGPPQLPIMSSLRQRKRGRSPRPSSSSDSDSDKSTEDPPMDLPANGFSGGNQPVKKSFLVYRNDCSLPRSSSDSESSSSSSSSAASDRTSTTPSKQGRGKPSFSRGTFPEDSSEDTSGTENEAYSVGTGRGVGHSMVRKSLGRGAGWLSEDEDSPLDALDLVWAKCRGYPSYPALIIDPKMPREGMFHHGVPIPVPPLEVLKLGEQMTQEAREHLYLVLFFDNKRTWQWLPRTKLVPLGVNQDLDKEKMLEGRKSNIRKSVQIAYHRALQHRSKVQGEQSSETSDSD

T1 sequence (Q9UIF8 whole entry): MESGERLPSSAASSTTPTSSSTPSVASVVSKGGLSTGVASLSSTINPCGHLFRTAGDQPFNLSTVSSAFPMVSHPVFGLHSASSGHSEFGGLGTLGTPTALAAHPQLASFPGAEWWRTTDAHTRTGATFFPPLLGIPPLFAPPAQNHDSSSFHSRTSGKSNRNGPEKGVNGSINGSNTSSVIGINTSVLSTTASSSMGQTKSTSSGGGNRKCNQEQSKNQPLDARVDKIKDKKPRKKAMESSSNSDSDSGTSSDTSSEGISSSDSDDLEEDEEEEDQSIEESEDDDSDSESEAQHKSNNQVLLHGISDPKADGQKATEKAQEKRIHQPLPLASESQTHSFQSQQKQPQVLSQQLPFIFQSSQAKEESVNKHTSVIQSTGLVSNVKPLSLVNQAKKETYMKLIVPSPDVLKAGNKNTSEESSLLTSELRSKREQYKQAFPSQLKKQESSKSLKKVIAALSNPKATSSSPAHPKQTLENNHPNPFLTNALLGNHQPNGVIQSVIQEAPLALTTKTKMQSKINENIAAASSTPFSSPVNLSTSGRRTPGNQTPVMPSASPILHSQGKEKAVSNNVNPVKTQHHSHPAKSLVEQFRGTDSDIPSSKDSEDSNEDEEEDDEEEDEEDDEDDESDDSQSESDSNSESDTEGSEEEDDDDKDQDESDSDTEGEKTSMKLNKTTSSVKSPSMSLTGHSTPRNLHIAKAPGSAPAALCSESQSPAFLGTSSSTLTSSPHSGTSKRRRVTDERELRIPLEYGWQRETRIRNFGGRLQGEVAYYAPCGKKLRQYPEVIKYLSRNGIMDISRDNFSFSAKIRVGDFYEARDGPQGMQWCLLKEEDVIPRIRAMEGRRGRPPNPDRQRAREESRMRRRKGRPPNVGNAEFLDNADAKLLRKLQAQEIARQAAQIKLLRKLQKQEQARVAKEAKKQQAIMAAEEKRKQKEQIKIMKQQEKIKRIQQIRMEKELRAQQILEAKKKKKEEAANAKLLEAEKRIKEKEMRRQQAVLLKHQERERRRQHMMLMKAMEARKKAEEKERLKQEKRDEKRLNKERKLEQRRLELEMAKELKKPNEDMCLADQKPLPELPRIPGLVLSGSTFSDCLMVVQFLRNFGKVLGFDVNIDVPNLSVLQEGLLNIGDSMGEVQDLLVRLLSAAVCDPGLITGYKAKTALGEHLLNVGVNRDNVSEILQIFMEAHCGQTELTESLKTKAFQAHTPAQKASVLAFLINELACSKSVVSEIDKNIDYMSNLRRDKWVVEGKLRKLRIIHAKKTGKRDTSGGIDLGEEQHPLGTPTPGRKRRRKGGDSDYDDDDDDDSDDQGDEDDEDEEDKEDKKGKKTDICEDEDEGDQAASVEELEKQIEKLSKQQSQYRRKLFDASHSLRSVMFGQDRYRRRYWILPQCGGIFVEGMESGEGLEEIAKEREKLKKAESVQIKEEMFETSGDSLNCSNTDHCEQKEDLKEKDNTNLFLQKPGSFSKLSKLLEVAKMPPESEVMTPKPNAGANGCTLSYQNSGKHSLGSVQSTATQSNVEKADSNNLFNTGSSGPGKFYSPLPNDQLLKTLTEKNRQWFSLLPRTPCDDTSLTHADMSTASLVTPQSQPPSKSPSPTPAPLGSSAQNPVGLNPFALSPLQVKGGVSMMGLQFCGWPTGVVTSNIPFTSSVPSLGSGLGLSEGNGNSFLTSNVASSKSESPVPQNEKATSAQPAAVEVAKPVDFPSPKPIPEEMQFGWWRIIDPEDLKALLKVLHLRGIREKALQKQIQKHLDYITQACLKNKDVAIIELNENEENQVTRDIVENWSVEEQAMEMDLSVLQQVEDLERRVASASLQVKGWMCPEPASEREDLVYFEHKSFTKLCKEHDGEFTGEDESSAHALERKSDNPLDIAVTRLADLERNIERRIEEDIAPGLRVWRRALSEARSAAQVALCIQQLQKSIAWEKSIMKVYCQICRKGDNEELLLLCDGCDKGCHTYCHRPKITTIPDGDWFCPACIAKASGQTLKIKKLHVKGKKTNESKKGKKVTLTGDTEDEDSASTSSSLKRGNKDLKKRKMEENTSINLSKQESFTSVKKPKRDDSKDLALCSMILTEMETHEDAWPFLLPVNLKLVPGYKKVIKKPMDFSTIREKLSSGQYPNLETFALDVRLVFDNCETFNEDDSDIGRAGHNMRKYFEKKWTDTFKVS
Chain of SMARCA4 (P51532 whole entry): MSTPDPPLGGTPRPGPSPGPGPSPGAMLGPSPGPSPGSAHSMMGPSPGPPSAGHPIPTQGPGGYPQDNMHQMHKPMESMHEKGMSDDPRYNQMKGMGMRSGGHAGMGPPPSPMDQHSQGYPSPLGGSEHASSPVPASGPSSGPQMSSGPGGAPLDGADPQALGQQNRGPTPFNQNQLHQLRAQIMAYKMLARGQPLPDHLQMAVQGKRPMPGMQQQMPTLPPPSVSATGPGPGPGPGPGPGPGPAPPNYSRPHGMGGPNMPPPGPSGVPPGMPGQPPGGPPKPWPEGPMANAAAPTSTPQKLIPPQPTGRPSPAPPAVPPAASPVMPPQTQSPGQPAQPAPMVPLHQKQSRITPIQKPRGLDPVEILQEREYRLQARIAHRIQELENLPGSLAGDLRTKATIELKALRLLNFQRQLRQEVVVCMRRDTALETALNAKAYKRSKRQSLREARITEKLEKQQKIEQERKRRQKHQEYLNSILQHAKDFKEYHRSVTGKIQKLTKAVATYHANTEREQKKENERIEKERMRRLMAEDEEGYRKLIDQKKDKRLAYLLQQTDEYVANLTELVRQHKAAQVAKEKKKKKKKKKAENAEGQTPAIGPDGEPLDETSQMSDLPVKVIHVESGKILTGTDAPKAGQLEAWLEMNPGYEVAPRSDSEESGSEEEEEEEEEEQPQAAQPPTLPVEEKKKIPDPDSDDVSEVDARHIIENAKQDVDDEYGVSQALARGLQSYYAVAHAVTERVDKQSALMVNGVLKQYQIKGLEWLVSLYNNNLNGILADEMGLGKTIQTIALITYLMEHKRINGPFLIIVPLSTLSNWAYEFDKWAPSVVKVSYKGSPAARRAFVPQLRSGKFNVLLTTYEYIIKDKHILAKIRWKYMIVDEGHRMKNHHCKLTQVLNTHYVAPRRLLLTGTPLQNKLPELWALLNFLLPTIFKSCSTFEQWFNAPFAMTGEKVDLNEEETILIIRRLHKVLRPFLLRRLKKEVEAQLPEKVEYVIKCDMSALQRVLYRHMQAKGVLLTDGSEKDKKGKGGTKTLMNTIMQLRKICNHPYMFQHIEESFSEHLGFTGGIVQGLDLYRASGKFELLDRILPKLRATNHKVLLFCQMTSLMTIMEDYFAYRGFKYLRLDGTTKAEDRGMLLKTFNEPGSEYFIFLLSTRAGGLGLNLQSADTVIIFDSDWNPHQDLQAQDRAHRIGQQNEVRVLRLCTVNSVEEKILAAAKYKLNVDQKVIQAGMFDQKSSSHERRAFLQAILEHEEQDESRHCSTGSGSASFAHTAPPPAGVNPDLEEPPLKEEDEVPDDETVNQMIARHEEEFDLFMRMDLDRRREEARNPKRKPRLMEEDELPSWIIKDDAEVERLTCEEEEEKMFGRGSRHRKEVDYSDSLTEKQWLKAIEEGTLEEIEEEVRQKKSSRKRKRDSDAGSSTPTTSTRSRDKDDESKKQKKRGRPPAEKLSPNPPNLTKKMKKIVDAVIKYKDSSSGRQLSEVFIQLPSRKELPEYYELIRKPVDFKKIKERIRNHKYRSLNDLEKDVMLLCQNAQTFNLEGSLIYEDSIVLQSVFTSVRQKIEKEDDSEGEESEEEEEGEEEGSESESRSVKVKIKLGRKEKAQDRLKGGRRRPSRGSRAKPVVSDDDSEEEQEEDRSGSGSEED
T2 sequence (P25440 347-455): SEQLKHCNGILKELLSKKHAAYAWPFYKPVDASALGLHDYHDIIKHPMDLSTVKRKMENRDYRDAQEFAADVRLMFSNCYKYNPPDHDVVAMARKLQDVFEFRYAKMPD

SMILES	binding to other (non-BET) BD families (in words) [1]	Percent Control BAZ2B [2] [%]	Percent Control SMARCA4 [3] [%]	Kd [4] [µM]	affinity for BRD2-BD1 and BRD4-BD1 within a factor of the affinity for BRD3-BD1 [5] [factor]	Percent Control BRPF1 [6] [%]	remaining binding at 1 µM ([2]; read-out: Percent Control BAZ2B) [%]	remaining binding at 1 µM ([6]; read-out: Percent Control BRPF1) [%]
CC[C@H](C)[C@@H]1NC(=O)[C@H]([C@@H](C)O)NC(=O)[C@H](CCCCN)NC(=O)[C@H](Cc2c[nH]c3ccccc23)NC(=O)CSC[C@@H](C(N)=O)NC(=O)[C@H](CCC(N)=O)NC(=O)[C@H](CCCCNC(C)=O)NC(=O)[C@H]([C@@H](C)O)NC(=O)[C@H](CCCNC(=N)N)NC(=O)[C@H](Cc2c[nH]c3ccccc23)NC(=O)[C@H]([C@@H](C)O)NC(=O)[C@H](CCCCNC(C)=O)NC(=O)CNC(=O)[C@H](CCCCNC(C)=O)NC1=O [3.1B] ({CH2CO}-WKTIK(Ac)GK(Ac)TWRTK(Ac)QC-NH2; thioether N-14)	almost no binding	100	77	~300	2 to 4	100	–	–
CC[C@H](C)[C@@H]1NC(=O)[C@H](Cc2c[nH]c3ccccc23)NC(=O)[C@H](Cc2c[nH]c3ccccc23)NC(=O)CSC[C@@H](C(N)=O)NC(=O)CNC(=O)[C@H](CCCCNC(C)=O)NC(=O)[C@H](CCCCN)NC(=O)[C@H](C(C)C)NC(=O)[C@H](CCCCNC(C)=O)NC(=O)[C@@H]2CCCN2C(=O)[C@H]([C@@H](C)CC)NC1=O [3.1C] ({CH2CO}-WWIIPK(Ac)VKK(Ac)GC-NH2; thioether N-11)	almost no binding	100	87	–	2 to 4	100	–	–
CC[C@H](C)[C@H](NC(=O)[C@H](CCCNC(=N)N)NC(=O)[C@H](CCCCNC(C)=O)NC(=O)[C@H](CCCNC(=N)N)NC(=O)[C@H](CC(C)C)NC(=O)[C@@H]1CSCC(=O)N[C@@H](Cc2c[nH]c3ccccc23)C(=O)N[C@@H](CCCCNC(C)=O)C(=O)NCC(=O)N[C@@H](Cc2ccc(O)cc2)C(=O)N[C@@H](CC(C)C)C(=O)N1)C(=O)N[C@@H](CCC(N)=O)C(=O)N[C@@H](CCCNC(=N)N)C(=O)N[C@H](C(=O)N[C@@H](Cc1ccc(O)cc1)C(=O)N[C@@H](CC(N)=O)C(N)=O)[C@@H](C)O [4.2C] ({CH2CO}-WK(Ac)GYLCLRK(Ac)RIQRTYN-NH2; thioether N-6)	–	–	–	–	–	–	99	100
